Measurements from patent US20090233930A9, “Novel 2-Amino-Imidazole-4-One Compounds and Their Use in the Manufacture of a Medicament to Be Used in the Treatment of Cognitive Impairment, Alzheimer's Disease, Neurodegeneration and Dementia” (ASTRAZENECA AB, priority 2005, published 2009).
Counter-ions that a name gives are not always drawn.

Target: T1, human β-Secretase (Homo sapiens, UniProt P56817)
T1 construct: The soluble part of the human β-Secretase (AA 1-AA 460) was cloned; made in house
Test: TR-FRET assay
Type: biochemical
Conditions: sBACE truncated form, substrate (Europium)CEVNLDAEFK(Qsy7) 100 nM, pH 4.5
Description: The enzyme used in the IGEN Cleavage-, Fluorescent-, TR-FRET- and the BiaCore assay is described as follows:
The soluble part of the human β-Secretase (AA 1-AA 460) was cloned into the ASP2-Fc10-1-IRES-GFP-neoK mammalian expression vector. The gene was fused to the Fc domain of IgG1 (affinity tag) and stably cloned into HEK 293 cells. Purified sBACE-Fc is stored in Tris buffer, pH 9.2 and has a purity of 95%.
Dilute the enzyme (truncated form) to 6 μg/mL (stock 1.3 mg/mL) and the substrate (Europium)CEVNLDAEFK(Qsy7) to 200 nM (stock 60 μM) in reaction buffer (NaAcetate, chaps, triton x-100, EDTA pH4.5). The Biomek FX is used for all liquid handling and the enzyme and substrate solutions are kept on ice until they are placed in Biomek FX. Enzyme (9 μl) is added to the plate then 1 μl of compound in dimethylsulphoxide is added, mixed and pre-incubated for 10 minutes. Substrate (10 μl) is then added, mixed and the reaction proceeds in the dark for 15 minutes at room temperature. The reaction is stopped with the addition of Stop solution (7 μl, NaAcetate pH 9). The fluorescence of the product is measured on a Victor II plate reader with an excitation wavelength of 340 nm and an emission wavelength of 615 nm. The assay is done in a Costar 384 well round bottom, low volume, non-binding surface (Corning #3676). […]

T1 sequence (P56817 22-460): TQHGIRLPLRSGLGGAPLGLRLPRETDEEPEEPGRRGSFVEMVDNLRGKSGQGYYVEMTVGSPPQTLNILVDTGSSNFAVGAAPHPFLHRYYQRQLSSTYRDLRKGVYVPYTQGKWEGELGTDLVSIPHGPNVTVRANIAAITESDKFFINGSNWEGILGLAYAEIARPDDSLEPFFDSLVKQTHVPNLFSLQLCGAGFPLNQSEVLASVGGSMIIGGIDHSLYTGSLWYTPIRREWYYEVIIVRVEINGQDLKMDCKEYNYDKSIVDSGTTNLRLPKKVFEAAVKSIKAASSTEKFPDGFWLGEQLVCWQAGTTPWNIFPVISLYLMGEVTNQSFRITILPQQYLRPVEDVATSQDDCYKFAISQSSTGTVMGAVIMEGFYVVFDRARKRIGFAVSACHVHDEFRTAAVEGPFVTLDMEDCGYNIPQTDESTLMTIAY

IC50 [nM]	SMILES
743	COc1ccc(OS(=O)(=O)C(F)(F)F)c(-c2cccc(C3(c4ccccc4)N=C(N)N(C)C3=O)c2)c1 (centres unmarked) [Example 26, 3′-(2-Amino-1-methyl-5-oxo-4-phenyl-4,5-dihydro-1H-imidazol-4-yl)-5-methoxybiphenyl-2-yl trifluoromethanesulfonate hydrochloride]
258	COc1cccc(-c2cccc(C3(c4cccc(OS(=O)(=O)C(F)(F)F)c4)N=C(N)N(C)C3=O)c2)c1 (centres unmarked) [Example 45, 3-[2-Amino-4-(3′-methoxybiphenyl-3-yl)-1-methyl-5-oxo-4,5-dihydro-1H-imidazol-4-yl]phenyl trifluoromethanesulfonate hydrochloride]
